The test system of the assay is human adipocytes. The experiment in a line: Glycerol release assay (lipolysis) in differentiated human adipocytes. The format is cell-based. To be noted: for Percent Glycerol Release over Background / glycerol releasing activity (result in words): human adipocytes in vitro; for lipid mobilization activity of insect AKH/HTP peptides and alanine walk analogs (result in words): Example 2, Table 8 peptides; for glycerol releasing activity (result in words): 100 nanomolar, 1 micromolar and 10 micromolar. Here is the method:
Two assay methods, giving equivalent results, can be used. The results disclosed in Example 2, below, were obtained using an in vitro assay based on measurement of glycerol released into the medium. An alternative assay system, based on the release of radioisotope from adipocytes incubated overnight with 9,10 ^3H-palmitate, can also be used.
Human subcutaneous preadipocytes, obtained by liposuction (Zen-Bio, Inc. Research Triangle Park, N.C.), are cultured for 3 weeks in 96-well plates in Differentiation medium (DMEM/Hams F10 [1/1, v/v], 15 mM Hepes buffer, 3% FBS, Penicillin/Streptomycin, 33 uM Biotin 17 uM Pantothenate, 100 nM human insulin, 0.5 uM Dexamethasone, 0.2 mM IBMX, and 10 uM thiazolidinedione.
The assay based on glycerol release is performed by removing the culture medium from differentiated cells, treating the cells with 0.1 ml of the test compounds at the appropriate doses in adipocyte medium (DMEM/Hank's F-10, 15 mM HEPES buffer, 3% FBS, penicillin/streptomycin) followed by incubation at 37 degrees Celsius for 2-5 hours. Isoproterenol is used as positive control and all assays are done in triplicate. At the end of the time points, 0.1 ml of the conditioned media from each well is transferred to a well of a new plate. Glycerol is quantified using standard enzymatic methods, with absorption by oxidized quinoneimine at 540 nm. Briefly, lipolytic activity can be assayed simply by the measurement of glycerol released into the medium since glycerokinase activity is not present in adipocytes (Carpene, C., Methods in Molecular Biology 155: Adipose Tissue Protocols, 1999). Glycerol released to the medium is phosphorylated by adenosine triphosphate (ATP) forming glycerol-1-phosphate (G-1-P) and adenosine-5′-diphosphate (ADP) in the reaction catalyzed by glycerol kinase. G-1-P is then oxidized by glycerol phosphate oxidase to dihydroxyacetone phosphate (DAP) and hydrogen peroxide (H2O2). […] The increase in absorbance at 540 nm is directly proportional to glycerol concentration of the sample.

The mark [1] stands for this setting: peptide concentration 1 micro M.
Where [2] appears, read: peptide concentration 10 micro M.

Non-standard residues stand in square brackets, D forms with d. No end group written: not given here. pGlu = O=C1CC[C@@H](C(=O)O)N1

Consider `CC(C)NCC(O)c1ccc(O)c(O)c1` (stereo not shown) [Iso, Isoproterenol, reference compound], for which the “Percent Glycerol Release over Background” value is recorded as 213% (peptide concentration 100 nM), 262% under setting [1] and 206% under setting [2].
For the molecule QLNFTASW [Peptide 53], the “Percent Glycerol Release over Background” value (peptide concentration 100 nM) worked out at 3.8%, the “Percent Glycerol Release over Background” value under setting [1] was found to be 36.8% and the “Percent Glycerol Release over Background” value under setting [2] is 18.9%.
For QLNFTASW-NH2 [Peptide 54], the “Percent Glycerol Release over Background” value runs as follows: (peptide concentration 100 nM) 2.8%; under setting [1], 4.7%; under setting [2], 8.5%.
As to QLNFTASWG [Peptide 52], the “Percent Glycerol Release over Background” value runs as follows: (peptide concentration 100 nM) 0.9%; under setting [1], 13.2%; under setting [2], 17%.
Regarding QLNFTASWG-NH2 [Peptide 72], the “Percent Glycerol Release over Background” value (peptide concentration 100 nM) stood at 18%, the “Percent Glycerol Release over Background” value under setting [1] came to 11.3% and the “Percent Glycerol Release over Background” value under setting [2] worked out at 18.9%.
Regarding “pGlu-Leu-Asn-Phe-Ser-Thr-Gly-TrpNH2 ([pGlu]LNFSTGW-NH2; SMILES CC(C)C[C@H](NC(=O)[C@@H]1CCC(=O)N1)C(=O)N[C@@H](CC(N)=O)C(=O)N[C@@H](Cc1ccccc1)C(=O)N[C@@H](CO)C(=O)N[C@H](C(=O)NCC(=O)N[C@@H](Cc1c[nH]c2ccccc12)C(N)=O)[C@@H](C)O; listed as Schistocerca gregaria) [SEQ ID NO: 17, reference compound]”, the “lipid mobilization activity of insect AKH/HTP peptides and alanine walk analogs (result in words)” value is “active”.
In the case of “pGlu-Leu-Asn-Phe-Thr-Ala-Ser-Trp ([pGlu]LNFTASW; listed as Homo sapiens) [Peptide 60]”, the “glycerol releasing activity (result in words)” value is given as “no measurable activity”.
For “pGlu-Leu-Asn-Phe-Thr-Ala-Ser-Trp-Gly ([pGlu]LNFTASWG; listed as Homo sapiens) [Peptide 51]”, the “Percent Glycerol Release over Background” value came out at 3.8% (peptide concentration 100 nM), 24.5% under setting [1] and 34.9% under setting [2].
In the case of “pGlu-Leu-Asn-Phe-Thr-Ala-Ser-Trp-GlyNH2 ([pGlu]LNFTASWG-NH2; SMILES CC(C)C[C@H](NC(=O)[C@@H]1CCC(=O)N1)C(=O)N[C@@H](CC(N)=O)C(=O)N[C@@H](Cc1ccccc1)C(=O)N[C@H](C(=O)N[C@@H](C)C(=O)N[C@@H](CO)C(=O)N[C@@H](Cc1c[nH]c2ccccc12)C(=O)NCC(N)=O)[C@@H](C)O; listed as Homo sapiens) [Peptide 73]”, the “glycerol releasing activity (result in words)” value was “low activity”. Also, the “Percent Glycerol Release over Background” value (peptide concentration 100 nM) turned out to be 0%. For the same molecule, the “Percent Glycerol Release over Background” value under setting [1] was found to be 0.9%. For the same molecule, under setting [2], the “Percent Glycerol Release over Background” value was determined as 3.8%.
The matching figures for “pGlu-Leu-Asn-Phe-Thr-Ala-Ser-TrpNH2 ([pGlu]LNFTASW-NH2; SMILES CC(C)C[C@H](NC(=O)[C@@H]1CCC(=O)N1)C(=O)N[C@@H](CC(N)=O)C(=O)N[C@@H](Cc1ccccc1)C(=O)N[C@H](C(=O)N[C@@H](C)C(=O)N[C@@H](CO)C(=O)N[C@@H](Cc1c[nH]c2ccccc12)C(N)=O)[C@@H](C)O; listed as Homo sapiens) [Peptide 55]”: “low activity”, 1.9%, 5.7% and 13.2%.
For “pGlu-Leu-Asn-Phe-Thr-Pro-Asn-Trp-Gly-ThrNH2 ([pGlu]LNFTPNWGT-NH2; SMILES CC(C)C[C@H](NC(=O)[C@@H]1CCC(=O)N1)C(=O)N[C@@H](CC(N)=O)C(=O)N[C@@H](Cc1ccccc1)C(=O)N[C@H](C(=O)N1CCC[C@H]1C(=O)N[C@@H](CC(N)=O)C(=O)N[C@@H](Cc1c[nH]c2ccccc12)C(=O)NCC(=O)N[C@H](C(N)=O)[C@@H](C)O)[C@@H](C)O; listed as Locusta migratoria) [SEQ ID NO: 18, reference compound]”, the “lipid mobilization activity of insect AKH/HTP peptides and alanine walk analogs (result in words)” value was “active”.
On to “pGlu-Leu-Thr-Phe-Thr-Ser-Ser-Trp-GlyNH2 ([pGlu]LTFTSSWG-NH2; SMILES CC(C)C[C@H](NC(=O)[C@@H]1CCC(=O)N1)C(=O)N[C@H](C(=O)N[C@@H](Cc1ccccc1)C(=O)N[C@H](C(=O)N[C@@H](CO)C(=O)N[C@@H](CO)C(=O)N[C@@H](Cc1c[nH]c2ccccc12)C(=O)NCC(N)=O)[C@@H](C)O)[C@@H](C)O; listed as Manduca sexta) [SEQ ID NO: 23, reference compound]”, for which the “lipid mobilization activity of insect AKH/HTP peptides and alanine walk analogs (result in words)” value is “active”.
“pGlu-Val-Asn-Phe-Ser-Pro-Gly-Trp-Gly-ThrNH2 ([pGlu]VNFSPGWGT-NH2; SMILES CC(C)[C@H](NC(=O)[C@@H]1CCC(=O)N1)C(=O)N[C@@H](CC(N)=O)C(=O)N[C@@H](Cc1ccccc1)C(=O)N[C@@H](CO)C(=O)N1CCC[C@H]1C(=O)NCC(=O)N[C@@H](Cc1c[nH]c2ccccc12)C(=O)NCC(=O)N[C@H](C(N)=O)[C@@H](C)O; listed as Blaberus discoidalis) [SEQ ID NO: 19, reference compound]”: the “lipid mobilization activity of insect AKH/HTP peptides and alanine walk analogs (result in words)” value is listed as “active”.
